Measurements as given in patent US11773078B2, “Furin inhibitors” (Glaxosmithkline Intellectual Property Development Limited, priority 2018, dated 2023).
Counter-ions that a name gives are not always drawn.

Legend:
[1] = molecular target: T1, furin (endogenous protease) in U20S cells (Homo sapiens, UniProt P09958); assay: Furin cell-based assay (image-based, Golgi-targeted GFP with BMP10 furin/PCSK cleavage site); settings: 24-hour incubation, read-out: furin golgi cell pXC50 (converted);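 also: Read-out is mean GFP fluorescence of Golgi puncta per cell by high-content imaging, retained when furin inhibited, over an eleven-point 0.00017–10 µM series, four-parameter fit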
T1 construct: the endogenous protease cleaves GFP; endogenous in cells; host or cells: U2OS cells transduced with a BacMam reporter
T1 sequence (P09958 108-794): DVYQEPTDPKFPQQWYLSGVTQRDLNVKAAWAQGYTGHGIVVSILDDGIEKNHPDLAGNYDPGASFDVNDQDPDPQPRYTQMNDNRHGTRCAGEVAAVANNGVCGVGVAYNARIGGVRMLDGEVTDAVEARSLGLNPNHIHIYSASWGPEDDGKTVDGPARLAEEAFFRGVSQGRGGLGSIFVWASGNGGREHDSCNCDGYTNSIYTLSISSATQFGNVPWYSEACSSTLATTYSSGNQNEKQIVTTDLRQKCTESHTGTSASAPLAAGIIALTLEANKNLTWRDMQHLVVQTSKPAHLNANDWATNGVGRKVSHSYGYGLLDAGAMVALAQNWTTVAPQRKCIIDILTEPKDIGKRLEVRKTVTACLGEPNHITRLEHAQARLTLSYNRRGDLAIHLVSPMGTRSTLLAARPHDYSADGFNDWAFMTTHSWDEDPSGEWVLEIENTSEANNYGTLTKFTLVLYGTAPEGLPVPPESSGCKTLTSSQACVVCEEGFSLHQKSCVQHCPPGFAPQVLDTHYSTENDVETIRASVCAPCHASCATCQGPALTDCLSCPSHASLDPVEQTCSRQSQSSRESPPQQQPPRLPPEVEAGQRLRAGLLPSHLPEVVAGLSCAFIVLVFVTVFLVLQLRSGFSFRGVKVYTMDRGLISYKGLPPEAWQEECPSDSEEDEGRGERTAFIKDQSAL

[2] = molecular target: T2, Furin (108-574-Tev-Flag-His) enzyme (Homo sapiens, UniProt P09958); assay: Furin enzyme assay; format: biochemical
T2 construct: Furin (108-574-Tev-Flag-His) enzyme was expressed and purified from CHO cells; TEV cleavage site (C); FLAG (C); His (C); made in house; host or cells: CHO cells
T2 sequence (P09958 108-574): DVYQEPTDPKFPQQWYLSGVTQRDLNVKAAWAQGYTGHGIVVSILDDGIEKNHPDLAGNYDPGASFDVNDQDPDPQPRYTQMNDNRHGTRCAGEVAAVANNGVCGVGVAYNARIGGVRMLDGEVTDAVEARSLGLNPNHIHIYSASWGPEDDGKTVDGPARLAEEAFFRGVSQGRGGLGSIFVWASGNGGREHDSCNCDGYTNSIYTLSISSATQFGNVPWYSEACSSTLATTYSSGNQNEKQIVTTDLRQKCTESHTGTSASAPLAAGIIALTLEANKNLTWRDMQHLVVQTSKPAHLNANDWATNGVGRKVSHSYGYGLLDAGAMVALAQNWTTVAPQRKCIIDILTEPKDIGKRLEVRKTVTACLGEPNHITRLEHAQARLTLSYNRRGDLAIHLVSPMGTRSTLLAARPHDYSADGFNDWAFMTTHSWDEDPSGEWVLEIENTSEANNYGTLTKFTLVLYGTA
In short: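 CHO-expressed, purified furin construct at 40 pM in 100 mM HEPES pH7.5, 1 mM CaCl2, 0.005% Triton X-100. Eleven-point 1:3 series, 0.00017–10 μM final, incubated 2 h at room temperature and read on Envision. pXC50 from four-parameter fit.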

Row | SMILES | EC50 [1] [nM] | furin enzyme pIC50 [2] | IC50 ([2]; read-out: furin enzyme pIC50 (converted)) [nM]
1 | CN1C[C@@H]2C[C@H]1CN2c1cnc(Oc2cc(CN3CCC(CC(=O)O)CC3)cc(-c3cc(Cl)cc(Cl)c3)n2)cn1 [Example 346, 2-(1-((2-(3,5-dichlorophenyl)-6-((5-((1S,4S)-5-methyl-2,5-diazabicyclo+2.2.1+heptan-2-yl)pyrazin-2-yl)oxy)pyridin-4-yl)methyl)piperidin-4-yl)acetic acid] | 12.6 | 8.5 | 
2 | CC(C)N1CCN(c2cnc(Oc3cc(CN4CCC(CC(=O)O)CC4)cc(-c4cc(Cl)cc(Cl)c4)n3)cn2)CC1 [Example 347, 2-(1-((2-(3,5-dichlorophenyl)-6-((5-(4-isopropylpiperazin-1-yl)pyrazin-2-yl)oxy)pyridin-4-yl)methyl)piperidin-4-yl)acetic acid] | 15.8 | 8.5 | 
3 | O=C(O)CC1CCN(Cc2cc(Oc3cnc(N4CCN5CCC4C5)cn3)nc(-c3cc(Cl)cc(Cl)c3)c2)CC1 (stereo not drawn) [Example 348, 2-(1-((2-((5-(1,4-diazabicyclo[3.2.1]octan-4-yl)pyrazin-2-yl)oxy)-6-(3,5-dichlorophenyl)pyridin-4-yl)methyl)piperidin-4-yl)acetic acid] | 50.1 | 8.4 | 
4 | CC(O)CCN1CCN(c2cnc(Oc3cc(CN4CCC(CC(=O)O)CC4)cc(-c4cc(Cl)cc(Cl)c4)n3)cn2)CC1 (stereo not drawn) [Example 349, 2-(1-((2-(3,5-dichlorophenyl)-6-((5-(4-(3-hydroxybutyl)piperazin-1-yl)pyrazin-2-yl)oxy)pyridin-4-yl)methyl)piperidin-4-yl)acetic acid] | 10 | 8.6 | 
5 | CN1CCN(c2cnc(Oc3cc(CN4CCC(CCO)CC4)cc(-c4cc(Cl)cc(Cl)c4)n3)cn2)CC1 [Example 350, 2-(1-((2-(3,5-dichlorophenyl)-6-((5-(4-methylpiperazin-1-yl)pyrazin-2-yl)oxy)pyridin-4-yl)methyl)piperidin-4-yl)ethanol] | 1.26 | 8.6 | 
6 | CC(CC1CCN(Cc2cc(Oc3cnc(N4CCCN(C)CC4)cn3)nc(-c3cc(Cl)cc(Cl)c3)c2)CC1)C(=O)O (stereo not drawn) [Example 351, 3-(1-((2-(3,5-dichlorophenyl)-6-((5-(4-methyl-1,4-diazepan-1-yl)pyrazin-2-yl)oxy)pyridin-4-yl)methyl)piperidin-4-yl)-2-methylpropanoic acid] | 25.1 | 9.4 | 
7 | CN1C2CC1CN(c1cnc(Oc3cc(CN4CCC(CC(=O)O)CC4)cc(-c4cc(Cl)cc(Cl)c4)n3)cn1)C2 [Example 352, 2-(1-((2-(3,5-dichlorophenyl)-6-((5-(6-methyl-3,6-diazabicyclo[3.1.1]heptan-3-yl)pyrazin-2-yl)oxy)pyridin-4-yl)methyl)piperidin-4-yl)acetic acid] | 50.1 | 8.2 | 
8 | CN1CCN(c2cnc(Oc3cc(CN4CCC(OC5(C(=O)O)CC5)CC4)cc(-c4cc(Cl)cc(Cl)c4)n3)cn2)CC1 [Example 353, 1-((1-((2-(3,5-dichlorophenyl)-6-((5-(4-methylpiperazin-1-yl)pyrazin-2-yl)oxy)pyridin-4-yl)methyl)piperidin-4-yl)oxy)cyclopropanecarboxylic acid] | 25.1 | 8.1 | 
9 | CS(=O)(=O)CCCN1CCN(c2cnc(Oc3cc(CN4CCC(CC(=O)O)CC4)cc(-c4cc(Cl)cc(Cl)c4)n3)cn2)CC1 [Example 354, 2-(1-((2-(3,5-dichlorophenyl)-6-((5-(4-(3-(methylsulfonyl)propyl)piperazin-1-yl)pyrazin-2-yl)oxy)pyridin-4-yl)methyl)piperidin-4-yl)acetic acid] | 25.1 | 8.1 | 
10 | CCN1CCCN(c2ccc(Oc3cc(CN4CCC(CC(=O)O)CC4)cc(-c4cc(Cl)cc(Cl)c4)n3)nn2)CC1 [Example 355, 2-(1-((2-(3,5-dichlorophenyl)-6-((6-(4-ethyl-1,4-diazepan-1-yl)pyridazin-3-yl)oxy)pyridin-4-yl)methyl)piperidin-4-yl)acetic acid] | 10 | 8.6 | 
11 | CN1CCCN(c2ccc(Oc3cc(CN4CCC(CC(=O)O)CC4)cc(-c4cc(Cl)cc(Cl)c4)n3)nn2)CC1 [Example 356, 2-(1-((2-(3,5-dichlorophenyl)-6-((6-(4-methyl-1,4-diazepan-1-yl)pyridazin-3-yl)oxy)pyridin-4-yl)methyl)piperidin-4-yl)acetic acid] | 31.6 | 8.6 | 
12 | CN1C[C@@H]2C[C@H]1CN2c1ccc(Oc2cc(CN3CCC(CC(=O)O)CC3)cc(-c3cc(Cl)cc(Cl)c3)n2)nn1 [Example 357, 2-(1-((2-(3,5-dichlorophenyl)-6-((6-((1S,4S)-5-methyl-2,5-diazabicyclo[2.2.1]heptan-2-yl)pyridazin-3-yl)oxy)pyridin-4-yl)methyl)piperidin-4-yl)acetic acid] | 100 | 8.5 | 
13 | CCN1CCN(c2ccc(Oc3cc(CN4CCC(CC(=O)O)CC4)cc(-c4cc(Cl)cc(Cl)c4)n3)nn2)CC1 [Example 358, 2-(1-((2-(3,5-dichlorophenyl)-6-((6-(4-ethylpiperazin-1-yl)pyridazin-3-yl)oxy)pyridin-4-yl)methyl)piperidin-4-yl)acetic acid] | 20 | 9.1 | 
14 | CN1CCN(c2ccc(Oc3cc(CN4CCC(CC(=O)O)CC4)cc(-c4cc(Cl)cc(Cl)c4)n3)nn2)CC1 [Example 359, 2-(1-((2-(3,5-dichlorophenyl)-6-((6-(4-methylpiperazin-1-yl)pyridazin-3-yl)oxy)pyridin-4-yl)methyl)piperidin-4-yl)acetic acid] | 63.1 | 9 | 
15 | CN1CCN(c2ccc(Oc3cc(CN4CCC(CCO)CC4)cc(-c4cc(Cl)cc(Cl)c4)n3)nn2)CC1 [Example 360, 2-(1-((2-(3,5-dichlorophenyl)-6-((6-(4-methylpiperazin-1-yl)pyridazin-3-yl)oxy)pyridin-4-yl)methyl)piperidin-4-yl)ethanol] | 12.6 | 9 | 
16 | CN1CCN(c2ccc(Oc3cc(CN4CC[C@@H]5[C@H](CC4)[C@H]5C(=O)O)cc(-c4cc(Cl)cc(Cl)c4)n3)nn2)CC1 [Example 361, (1R,7S,8r)-4-((2-(3,5-dichlorophenyl)-6-((6-(4-methylpiperazin-1-yl)pyridazin-3-yl)oxy)pyridin-4-yl)methyl)-4-azabicyclo[5.1.0]octane-8-carboxylic acid] | 50.1 | 9 | 
17 | CN1CCCN(c2ccc(Oc3cc(CN4CC[C@@H]5[C@H](CC4)[C@H]5C(=O)O)cc(-c4cc(Cl)cc(Cl)c4)n3)nn2)CC1 [Example 362, (1R,7S,8r)-4-((2-(3,5-dichlorophenyl)-6-((6-(4-methyl-1,4-diazepan-1-yl)pyridazin-3-yl)oxy)pyridin-4-yl)methyl)-4-azabicyclo[5.1.0]octane-8-carboxylic acid] | 25.1 |  | 0.0316
18 | CC(=O)NCC1CCN(Cc2cc(Oc3ccc(N4CCN(CC(C)C(=O)O)CC4)nn3)nc(-c3cc(Cl)cc(Cl)c3)c2)CC1 (stereo not drawn) [Example 363, 3-(4-(6-((4-((4-(acetamidomethyl)piperidin-1-yl)methyl)-6-(3,5-dichlorophenyl)pyridin-2-yl)oxy)pyridazin-3-yl)piperazin-1-yl)-2-methylpropanoic acid] | 631 | 9.7 | 
19 | C[C@@H](CC1CCN(Cc2cc(Oc3ccc(N4CCN(C)CC4)nn3)nc(-c3cc(Cl)cc(Cl)c3)c2)CC1)C(=O)O [Example 365, (S)-3-(1-((2-(3,5-dichlorophenyl)-6-((6-(4-methylpiperazin-1-yl)pyridazin-3-yl)oxy)pyridin-4-yl)methyl)piperidin-4-yl)-2-methylpropanoic acid] | 126 | 9.9 | 
20 | CCN1C[C@@H]2C[C@H]1CN2c1ccc(Oc2cc(CN3CCC(CC(=O)O)CC3)cc(-c3cc(Cl)cc(Cl)c3)n2)nn1 [Example 366, 2-(1-((2-(3,5-dichlorophenyl)-6-((6-((1S,4S)-5-ethyl-2,5-diazabicyclo[2.2.1]heptan-2-yl)pyridazin-3-yl)oxy)pyridin-4-yl)methyl)piperidin-4-yl)acetic acid] | 31.6 | 8.8 | 
21 | CC(=O)N[C@H]1[C@@H]2CCN(Cc3cc(Oc4cnc(N5CCN(CCC(=O)O)CC5)nc4)nc(-c4cc(Cl)cc(Cl)c4)c3)CC[C@@H]21 [Example 367] | 2.51 | 10.1 | 
22 | COC(=O)C(C)CCN1CCN(c2ncc(Oc3cc(CN4CCC(CNC(C)=O)CC4)cc(-c4cc(Cl)cc(Cl)c4)n3)cn2)CC1 (stereo not drawn) [Example 368, methyl 4-(4-(5-((4-((4-(acetamidomethyl)piperidin-1-yl)methyl)-6-(3,5-dichlorophenyl)pyridin-2-yl)oxy)pyrimidin-2-yl)piperazin-1-yl)-2-methylbutanoate] | 3.98 | 8.3 | 
23 | CC(=O)NCC1CCN(Cc2cc(Oc3cnc(N4CCN(CCC(C)(C)C(=O)O)CC4)nc3)nc(-c3cc(Cl)cc(Cl)c3)c2)CC1 [Example 370, 4-(4-(5-((4-((4-(Acetamidomethyl)piperidin-1-yl)methyl)-6-(3,5-dichlorophenyl)pyridin-2-yl)oxy)pyrimidin-2-yl)piperazin-1-yl)-2,2-dimethylbutanoic acid, 4 hydrochloride] | 6.31 | 9.2 | 
24 | Cc1c(CN2CCC(CC(=O)O)CC2)cc(-c2cc(Cl)cc(Cl)c2)nc1Oc1ccc(N2CCN(C)CC2)nn1 [Example 371, 2-(1-((6-(3,5-Dichlorophenyl)-3-methyl-2-((6-(4-methylpiperazin-1-yl)pyridazin-3-yl)oxy)pyridin-4-yl)methyl)piperidin-4-yl)acetic acid] | 31.6 | 8.9 | 
